Measurements from PMC9706280 (Journal of Pesticide Science, 2022).

Target: succinate dehydrogenase (SDH) (Botrytis cinerea, UniProt A0A384J5E4+A0A384J8V8+A0A384JHJ5)
Experiment: SDH assay kit on B. cinerea mitochondrial suspension, absorbance at […] nm
Format: biochemical
Settings: read-out: IC50 / μM

succinate dehydrogenase (SDH), sequence (A0A384J5E4 31-300): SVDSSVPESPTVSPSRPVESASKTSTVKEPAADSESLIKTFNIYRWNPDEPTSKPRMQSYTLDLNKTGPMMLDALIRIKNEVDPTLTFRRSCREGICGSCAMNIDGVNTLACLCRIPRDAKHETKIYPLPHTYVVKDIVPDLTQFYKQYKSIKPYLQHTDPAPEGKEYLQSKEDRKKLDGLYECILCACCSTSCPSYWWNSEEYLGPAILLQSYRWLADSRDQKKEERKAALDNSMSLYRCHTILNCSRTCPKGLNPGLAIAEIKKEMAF
succinate dehydrogenase (SDH), sequence (A0A384J8V8 41-189): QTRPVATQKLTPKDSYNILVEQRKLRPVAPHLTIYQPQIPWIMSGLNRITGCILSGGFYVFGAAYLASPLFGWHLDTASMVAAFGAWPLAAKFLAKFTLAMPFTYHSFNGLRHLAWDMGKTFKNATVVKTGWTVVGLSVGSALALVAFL
succinate dehydrogenase (SDH), sequence (A0A384JHJ5 55-192): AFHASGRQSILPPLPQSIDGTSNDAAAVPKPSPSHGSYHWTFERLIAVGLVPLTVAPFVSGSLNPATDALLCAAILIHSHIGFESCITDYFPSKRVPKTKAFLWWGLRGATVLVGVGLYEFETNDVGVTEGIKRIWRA
succinate dehydrogenase (SDH), sequence (A0A384K456 41-647 partner): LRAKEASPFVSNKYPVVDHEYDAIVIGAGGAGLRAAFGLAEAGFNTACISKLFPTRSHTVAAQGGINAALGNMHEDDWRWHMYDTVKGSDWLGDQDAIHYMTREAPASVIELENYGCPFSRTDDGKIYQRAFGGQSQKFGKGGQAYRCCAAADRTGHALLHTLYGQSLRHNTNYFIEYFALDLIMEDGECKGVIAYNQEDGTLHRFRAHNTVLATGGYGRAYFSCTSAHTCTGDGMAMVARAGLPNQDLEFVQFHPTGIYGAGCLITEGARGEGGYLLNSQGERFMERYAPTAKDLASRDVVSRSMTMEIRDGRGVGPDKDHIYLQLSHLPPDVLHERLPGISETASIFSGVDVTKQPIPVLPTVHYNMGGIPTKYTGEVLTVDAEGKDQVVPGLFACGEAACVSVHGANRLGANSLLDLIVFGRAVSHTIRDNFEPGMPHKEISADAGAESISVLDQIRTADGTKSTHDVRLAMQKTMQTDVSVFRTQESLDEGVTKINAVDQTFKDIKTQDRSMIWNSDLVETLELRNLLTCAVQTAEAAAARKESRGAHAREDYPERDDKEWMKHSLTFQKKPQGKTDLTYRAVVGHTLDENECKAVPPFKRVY

O=C(Nc1ccccc1Nc1ccccc1)c1ccc(Cl)nc1 [3f, 6-chloro-N-(2-(phenylamino)phenyl)nicotinamide] showed an IC50 of 17.3 µM.

Cc1nc(C(F)(F)F)c(C(=O)Nc2c(Br)cc(OC(F)(F)F)cc2Br)s1 [thifluzamide] gave an IC50 of 14.4 µM.
